Where two headings read alike, the source gives them in different places.
Experiments:
[1] = system: Key Broadleaf Weed and Crop Species; assay: Post-emergent Test II herbicidal activity (Table 15); assay type: in vivo; conditions: post-emergence, 336 h, 14 d; for pest or weed control at 35 g/ha: 35 g ai/ha; for pest or weed control at 70 g/ha: 70 g ai/ha
Outline: (§1)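 Greenhouse-grown seedlings at first/second true leaf receive a track spray at 187 L/ha, using a highest rate plus two-fold serial dilutions down to 1/16×. Watering is by subirrigation to avoid wash-off. Percent injury (0-100) is judged by eye at 14 d against untreated plants.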

[2] = system: Key Grass and Sedge Weeds as well as Grass Crops; assay: Post-emergent Test II herbicidal activity (Table 16); assay type: in vivo; conditions: post-emergence, 336 h, 14 d; for pest or weed control at 35 g/ha: 35 g ai/ha; for pest or weed control at 70 g/ha: 70 g ai/ha; for pest or weed control at 140 g/ha: 140 g ai/ha
Outline: as §1

[3] = Abutilon theophrasti, velvetleaf (Abutilon theophrasti), read-out: Visual Growth Reduction (%) 14 Days After Application, ABUTH
[4] = Amaranthus retroflexus, redroot pigweed (Amaranthus retroflexus), read-out: Visual Growth Reduction (%) 14 Days After Application, AMARE
[5] = Brassica napus, oilseed rape, canola (Brassica napus), read-out: Visual Growth Reduction (%) 14 Days After Application, BRSNN
[6] = Chenopodium album, lambsquarters (Chenopodium album), read-out: Visual Growth Reduction (%) 14 Days After Application, CHEAL
[7] = Euphorbia heterophylla, wild poinsettia (Euphorbia heterophylla), read-out: Visual Growth Reduction (%) 14 Days After Application, EPHHL
[8] = Helianthus annuus, sunflower (Helianthus annuus), read-out: Visual Growth Reduction (%) 14 Days After Application, HELAN
[9] = Cyperus esculentus, yellow nutsedge (Cyperus esculentus), read-out: Visual Growth Reduction (%) 14 Days After Application, CYPES
[10] = Echinochloa crus-galli, barnyardgrass (Echinochloa crus-galli), read-out: Visual Growth Reduction (%) 14 Days After Application, ECHCG
[11] = Oryza sativa, rice (Oryza sativa), read-out: Visual Growth Reduction (%) 14 Days After Application, ORYSA
[12] = Triticum aestivum, wheat, spring (Triticum aestivum), read-out: Visual Growth Reduction (%) 14 Days After Application, TRZAS
[13] = Zea mays, maize, corn (Zea mays), read-out: Visual Growth Reduction (%) 14 Days After Application, ZEAMX

Which results are given for `COC(=O)c1nc(-c2ccc3cc[nH]c3c2)cc(N)c1Cl` [Compound 1.21]?
pest or weed control at 35 g/ha [1, 3]: 60 to 74%; pest or weed control at 70 g/ha [1, 3]: 60 to 74%; pest or weed control at 35 g/ha [1, 4]: 0 to 29%; pest or weed control at 70 g/ha [1, 4]: 0 to 29%; pest or weed control at 35 g/ha [1, 5]: 0 to 29%; pest or weed control at 70 g/ha [1, 5]: 0 to 29%; pest or weed control at 35 g/ha [1, 6]: 45 to 59%; pest or weed control at 70 g/ha [1, 6]: 85 to 94%; pest or weed control at 35 g/ha [1, 7]: 75 to 84%; pest or weed control at 70 g/ha [1, 7]: 85 to 94%; pest or weed control at 35 g/ha [1, 8]: 45 to 59%; pest or weed control at 70 g/ha [1, 8]: 75 to 84%; pest or weed control at 35 g/ha [2, 9]: 0 to 29%; pest or weed control at 70 g/ha [2, 9]: 0 to 29%; pest or weed control at 140 g/ha [2, 9]: 0 to 29%; pest or weed control at 35 g/ha [2, 10]: 0 to 29%; pest or weed control at 70 g/ha [2, 10]: 0 to 29%; pest or weed control at 35 g/ha [2, 11]: 0 to 29%; pest or weed control at 70 g/ha [2, 11]: 0 to 29%; pest or weed control at 140 g/ha [2, 11]: 0 to 29%; pest or weed control at 140 g/ha ([2]; Setaria faberi, giant foxtail (Setaria faberi), read-out: Visual Growth Reduction (%) 14 Days After Application, SETFA): 0 to 29%; pest or weed control at 35 g/ha [2, 12]: 0 to 29%; pest or weed control at 70 g/ha [2, 12]: 0 to 29%; pest or weed control at 140 g/ha [2, 12]: 0 to 29%; pest or weed control at 35 g/ha [2, 13]: 0 to 29%; pest or weed control at 70 g/ha [2, 13]: 0 to 29%; pest or weed control at 140 g/ha [2, 13]: 0 to 29%; melting point: 83 to 85 °C

Reference: patent publication US20170050957A1, “4-AMINO-6-(HETEROCYCLIC)PICOLINATES AND 6-AMINO-2-(HETEROCYCLIC)PYRIMIDINE-4-CARBOXYLATES AND THEIR USE AS HERBICIDES” (Dow AgroSciences LLC, priority 2013, published 2017)
